The record followed here is patent US20060099712A1, “Correlation of anti-cancer activity of dyes with redox potentials” (Eastman Kodak Company, priority 2004, published 2006).

For the assay, the system named is CX-1 Human Colon Carcinoma. Put plainly: Clonogenic dye screening assay, CX-1 cells (IC50). The format is cell-based. Set-up: CX: unit not given here. As to conditions: for CX: CX-1 cells; for CV/C: selectivity ratio, value of 1 where dye inactive; for CX (IC50 in the CX-1 cell line): 3 hrs treatment, colonies after 7-10 days, unit from method b117-118; for CV/CX (selectivity, kill ratio): ratio of IC50 in normal CV-1 line to IC50 in carcinoma CX-1 line; for CV/CX: selectivity ratio of IC50 values. An excerpt:
CX-1 is a cancerous human colon adenocarcinoma cell line. CV-1 is a non-cancerous control, which is a kidney epithelial cell line from an African green monkey. IC50 is the dye concentration at which 50% of the cells are killed. Selectivity or kill ratio is defined as the ratio of […] at IC50 for both CX-1 and CV-1. A ratio with a high number indicates a high selectivity.
The dyes were screened in two cell lines. CX-1 is a human colon adenocarcinoma cell line. CV-1 is a kidney epithelial cell line from an African green monkey. CV-1 was used as a reference because no normal human epithelial cell line is available for clonogenic assay.
In the initial screen, dyes were examined at six different concentrations to generate a dose response curve. An IC50 value, the concentration at which 50% of the cells are killed, was then calculated. Initially, a dye concentration of 1.0 μg/mL was the highest examined for the CX-1 cell line and 0.005 μg/mL was the lower limit. The corresponding limits on the CV-1 cell line were […].
The screening procedure used a response curve that was determined from eight dye concentrations. The upper and lower limits of CX-1 were 0.32 and 0.0015 μg/mL, respectively, and the corresponding revised limits on CV-1 were 3.2 and 0.025 μg/mL. The screening results were reported by assigning an IC50 value to each dye for the CV-1 and CX-1 cell lines. These values will be referred to herein simply as CV and CX. The most desirable result would be to have a dye that was highly toxic to carcinoma cells but nontoxic to ‘normal’ cells. One measure of this type of selectivity is the ratio of the IC50's in the normal cell line to that in the carcinoma line, CV/CX.
Compounds are screened via an in vitro assay. CV-1 and CX-1 cells are seeded into separate assay plates. The plates are treated with varying concentrations of test compounds, rinsed, and colonies allowed to grow. IC50's are determined and drugs evaluated based on their selectivity and toxicity. Assay Steps: • I. Seeding Cells • II. Weighing • III. Preparation of Solution • IV. Treatment • V. Rinsing and Feeding • VI. Fixing • VII. IC50 Determination I. Seeding Cells
The cells should be seeded 16-30 hours before treatment. The media for CV-1 cells is DME+5% calf serum +5% Nuserum. The media for CX-1 cells is RPMI/DME (50/50)+5% calf serum +5% Nuserum.
(c) number of cells based on 2000 CX-1 cells/well and 1000 CV-1 cells/well. NOTE: Always make enough cell suspension for 1 extra plate to allow for volume loss during transfers.
• (a) For CV-1: 256 ug/ml-256 ul of 1 mg/ml stock +744 ul DMSO • (b) For CX-1: 25.6 ug/ml-100 ul of 256 ug/ml+900 ul DMSO IV. Treatment • 1. Each plate is treated with 4 test compounds, one positive control and one negative control. • 2. Serial dilutions of the compounds are made in the following way:
2 multi-well pipetters are used. One is set for 10 ul and one for 200 ul. Each is equipped with 6 tips spaced such that they fit into the 6 rows of a plate. 390 ul of media is added to the first column of each plate. 10 ul each of 4 compound solutions, a positive and a negative control are taken up and put into the first column of wells. The 200 ul pipetter is then placed in the same wells, pipetted up and down 3 times and two 200 ul aliquots are moved to the next column of wells. This column is pipetted up and down 3 times and 400 ul moved to column 3, etc. The final 400 ul excess from column 8 is discarded.
• 3. Label the plates along the front, each row −1 compound. • 4. Incubate the plates at 37° C. for 3 hrs. V. Rinsing • 1. Prepare several bottles of CX-1 and CV-1 media. • 2. Check for precipitate in first column of each plate and note. • 3. Starting with the plates treated first, rinse several plates at a time by aspirating the treatments and refilling each well with 0.5-1.0 ml of the rinse media. Aspirate and refill 2 more times for a total of 3 rinses. • 4.

Where [1] appears, read: Table XXI, oxathiacarbocyanine nitrogen substituents.
Where [2] appears, read: Table XVII, benzotellurazole derivatives.

For `CCN1/C(=C/C=C/c2sc3ccccc3[n+]2CC(=O)c2ccccc2)Oc2ccccc21` [R1=CC(═0)Ph, R2=Et], the CX under setting [1] turned out to be 0.3. Further, the CV/C (Table XXI) was found to be 10.0. Regarding `CCN1/C(=C/C(=C/c2sc3ccc4ccccc4c3[n+]2CC)SC)Oc2ccc3ccccc3c21` [drawing 40|E|SMe], the “CX (IC50 in the CX-1 cell line)” value was found to be 0.04 µg/mL and the “CV/CX (selectivity, kill ratio)” value worked out at 5.0. For `CC[n+]1c(/C=C/C=C2\Oc3ccccc3N2CC(=O)c2ccccc2)sc2ccccc21` [R1=Et, R2=C(C═O)Ph], the CX under setting [1] was 0.8. For the same molecule, the CV/C (Table XXI) is 3.7. `CCN1C(=CC=c2sc(=Cc3sc4ccccc4[n+]3CC)n(CC)c2=O)Sc2ccccc21` [drawing 51|Et]: the “CX (IC50 in the CX-1 cell line)” value was 0.07 µg/mL and the “CV/CX (selectivity, kill ratio)” value was 22.8. For `CCN1/C(=C/C=C/c2sc3ccccc3[n+]2CCNS(=O)(=O)c2ccc(C)cc2)Oc2ccccc21` [drawing 37|CCNSO2Ph-4C|Et], in that order: 0.3 µg/mL and 26.7. `CCN1/C(=C/C=C/c2sc3c([n+]2C)CCCC3)Sc2ccccc21.[I-]` [benzothiazole(4,5,6,7-H)] registered a CX (Table XVI, unsymmetrical dyes) of less than 0.005. Moreover, the CV/CX (Table XVI) is greater than 60.0. Under setting [2], `CCN1/C(=C/C(C)=C/c2[te]c3ccc(C)cc3[n+]2CC)Sc2ccc(OC)cc21` [R=E, X=S, Z1=5-Me, R2=Me, Z2=5-MeO] registered a CX of 0.03. Further, the CV/CX (Table XVII) came to 33.3. Regarding `CCN1/C(=C/C=C/c2sc3ccccc3[n+]2CC(=O)c2ccc(O)cc2O)Oc2ccccc21` [R1=CC(═0)Ph-2,4-OH, R2=Et], under setting [1], the CX is reported as 0.3. In addition, the CV/C (Table XXI) was greater than 33.3. As for `CCN1C(=CC(=Cc2sc3ccccc3[n+]2CC)c2cccs2)Sc2ccccc21` [drawing 38|E|H|2Thienyl|H], the “CX (IC50 in the CX-1 cell line)” value was 0.16 µg/mL and the “CV/CX (selectivity, kill ratio)” value came to 10.0. For the molecule `CCN1/C(=C/C=C/c2sc3ccccc3[n+]2CC)Oc2cc(C)c(Cl)cc21` [drawing 44|E|H|5-Cl, 6-Me], the “CV/CX (selectivity, kill ratio)” value is reported as 11.4.

`OCCN1C(=CC=Cc2sc3ccccc3[n+]2CCO)Sc2ccccc21` [drawing 36|CCOH|CCOH]: the “CX (IC50 in the CX-1 cell line)” value is greater than 0.32 µg/mL and the “CV/CX (selectivity, kill ratio)” value is listed as 10.0. Moreover, the “CV/CX (selectivity, kill ratio)” value (listed as N,N′-di(2-hydroxyethyl) dye) is listed as “not active”. The molecule `CCN1/C(=C/C=C/c2sc3ccccc3[n+]2CCNS(=O)(=O)c2ccc(C)cc2)Oc2ccccc21` [R1=CCNS02Ph-4C, R2=Et] registered a CX under setting [1] of 0.3. Moreover, the CV/C (Table XXI) was determined as 26.7. Take `CCN1/C(=C/C=C/c2sc3ccccc3[n+]2CC(=O)c2ccc(O)cc2O)Oc2ccccc21` [drawing 37|CC(═O)Ph-2,4-OH|Et]: the “CX (IC50 in the CX-1 cell line)” value amounted to 0.3 µg/mL and the “CV/CX (selectivity, kill ratio)” value is greater than 33.3. For `CCN1/C(=C/C=C/c2sc3ccccc3[n+]2CCS(=O)(=O)CC)Oc2ccccc21` [drawing 37|CCSO2CC|Et], in that order: 0.3 µg/mL and greater than 33.3. For `CN1C(=CC(=Cc2sc3ccccc3[n+]2C)Sc2ccccc2)Sc2ccccc21` [drawing 38|M|H|SPh|H], in that order: 0.065 µg/mL and 7.69. Turning to `CCN1/C(=C\C=C\c2sc3ccccc3[n+]2CC)Oc2ccc(Cl)cc21` [drawing 44|Et|H|5-Cl], the “CV/CX (selectivity, kill ratio)” value is given as 27.3. Consider `CCN1/C(=C/C=C/c2sc3ccccc3[n+]2CC)Oc2cccc(O)c21` [drawing 44|E|H|4-OH], for which the “CV/CX (selectivity, kill ratio)” value stood at 0.43.

In the case of `CCN1/C(=C/C=C/c2sc3ccc(OC)cc3[n+]2CC)Sc2ccc(OC)cc21` [drawing 41|Et|5-MeO|5-MeO], the “CV/CX (selectivity, kill ratio)” value was found to be 40.0. Take `CC[n+]1c(/C=C/C=C2\Oc3ccccc3N2CC(F)(F)F)sc2ccccc21` [drawing 37|Et|CC(F)3]: the “CX (IC50 in the CX-1 cell line)” value amounted to 0.1 µg/mL and the “CV/CX (selectivity, kill ratio)” value stood at 50.0. For the molecule `CCOC(=O)c1c(C)c(C=CC=C2SCCN2C)cc2[n+]1CCc1ccccc1-2.[O-][Cl+3]([O-])([O-])[O-]` [Dye D-171], the “CV/CX (selectivity, kill ratio)” value came out at 62.5. Under setting [1], `CCN1/C(=C/C=C/c2sc3ccccc3[n+]2CC(=O)c2ccc(O)c(O)c2)Oc2ccccc21` [R1=CC(═0)Ph-3,4-OH, R2=Et] came in with a CX greater than 1.0. Moreover, the CV/C (Table XXI) amounted to 1.0. Consider `CCN1/C(=C/C(=C/c2sc3ccccc3[n+]2CC)Sc2ccc(C)cc2)Sc2ccccc21` [drawing 38|E|H|SPhMe|H], for which the “CX (IC50 in the CX-1 cell line)” value came out at 0.07 µg/mL and the “CV/CX (selectivity, kill ratio)” value stood at 3.57. Taken in the same sequence, the figures for `CCN1C(=CC(=Cc2sc3ccccc3[n+]2CC)SC)Sc2ccccc21` [drawing 38|E|H|SMe|H] were 0.24 µg/mL and 1.25.

For the molecule `CCC(=Cc1sc2ccccc2[n+]1CC)C=C1Oc2ccccc2N1CC` [drawing 39|E|H|Et], the “CX (IC50 in the CX-1 cell line)” value stood at 0.03 µg/mL and the “CV/CX (selectivity, kill ratio)” value was determined as 33.3. In turn, `C=C(Br)C[n+]1c(/C=C/C=C2\Oc3ccccc3N2CC)sc2ccccc21` [R1=CC(Br)═C, R2=Et] returned a CX under setting [1] of 0.03. The CV/C (Table XXI) is 33.3. Take `CCN1/C(=C/C=C/c2[te]c3cc(OC)c(OC)cc3[n+]2C)Sc2ccccc21` [R=M/E, X=S, Z1=5,6-MeO, R2=H, Z2=H]: the CX under setting [2] is 0.5. For the same molecule, for the setting “Table XVII”, the CV/CX was found to be 2.0. As for `CCn1c(=O)/c(=C/C=C2\C=Cc3cccc4c3N2CCC4)s/c1=C\c1oc2ccccc2[n+]1CC` [Dye D-143], the “CX (IC50 in the CX-1 cell line)” value is 0.1 µg/mL and the “CV/CX (selectivity, kill ratio)” value is on record as 100. Taken in the same sequence, the figures for `CCSC(CCN1/C(=C/C=C/c2sc3ccccc3[n+]2CCC(SCC)SCC)Sc2ccccc21)SCC` [drawing 36|CCC(SEt)2|CCC(SEt)2] were greater than 0.32 µg/mL and less than 4.1. Regarding `CCN1/C(=C/C(=C/c2oc3ccccc3[n+]2C)SC)Sc2ccc(Cl)cc21.[I-]` [Dye D-169], the “CV/CX (selectivity, kill ratio)” value is 100.0.

Regarding `CCN1/C(=C/C=C/c2sc3ccccc3[n+]2CCC=O)Oc2ccccc21` [drawing 37|CCC═O|Et], the “CX (IC50 in the CX-1 cell line)” value came to 0.1 µg/mL and the “CV/CX (selectivity, kill ratio)” value stood at 50.0. Taken in the same sequence, the figures for `COc1cccc2c1CCC1=C2N(C)/C(=C/C=C/c2sc3c([n+]2C)-c2cccc(OC)c2CC3)S1` [drawing 43|M|4,5-H, 6-MeO|4,5-H, 6-MeO] were 0.02 µg/mL and 0.75.

In the case of `CN1/C(=C/C=C/c2sc3ccc4ccccc4c3[n+]2C)Sc2ccc3ccccc3c21` [drawing 43|M|H|H], the “CV/CX (selectivity, kill ratio)” value is 10.0. For the molecule `CCN1C(=CC=Cc2oc3ccc(OC)cc3[n+]2CC)Oc2ccc(OC)cc21` [drawing 45|5-MeO|5-MeO], the “CX (IC50 in the CX-1 cell line)” value was 0.31 µg/mL and the “CV/CX (selectivity, kill ratio)” value was found to be 5.16. Under setting [1], `CCN1/C(=C/C=C/c2sc3ccccc3[n+]2CCC=O)Oc2ccccc21` [R1=CCC═0, R2=Et] had a CX of 0.1. Moreover, the CV/C (Table XXI) was found to be 50.0.
